According to patent publication US10975123B2, “Mutant Akt-specific capture agents, compositions, and methods of using and making” (California Institute of Technology, priority 2014, dated 2021):
“Also recorded” adds a separate entry of the source. Where a SMILES comes first, the peptide text is derived from it. [ ]: non-standard residue; d: D form.

Tests used:
[1] = molecular target: T1, E17K 33-mer fragment (6His-tagged) (Homo sapiens, UniProt P31749, E17K/H13K); experiment: HPLC-detected immunoprecipitation (pulldown), E17K 33-mer; format: binding; settings: 50 μM epitope, overnight 4° C., guanidine elution, in words
T1 construct: made in house; host or cells: chemical synthesis (Fmoc SPPS)
T1 sequence (P31749 1-33 H13K/E17K limits assumed): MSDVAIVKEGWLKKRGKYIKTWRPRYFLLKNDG
From the text: The label-modified yleaf (SEQ ID NO: 43) peptide (FIG. 2a and FIG. 12) was subjected to a variety of binding assays against the synthesized WT and E17K 33-mer PHD fragments prepared without the biotin label and alkyne click handle. First, the yleaf (SEQ ID NO: 43) peptide was used in immunoprecipitation assays to pull-down either the WT or E17K mutant 6His-tagged (SEQ ID NO: 4) 33-mer peptide fragments (FIGS. 13 and 14), as opposed to the full-length proteins that were used to initially validate the candidates. Typical immunoprecipitation assays involve western blotting to estimate the amount of protein binding, but 33-mer peptide fragments are not easily quantified on a blot. Because of this, the amount of peptide epitope precipitated in these assays was quantified via injection on an analytical HPLC. These assays further confirmed preferential yleaf (SEQ ID NO: 43) ligand binding to the E17K 33-mer epitope relative to the WT epitope (FIG. 15).
Pulldown assays with the biotinylated anchor and his-tagged 33-mer epitope were performed to verify epitope targeting. […] Because small peptide fragments like the 33-mer epitope are difficult to transfer to and detect on the nitrocellulose membrane as for a traditional Western blot, the amount of binding in these assays was detected via HPLC. […]

[2] = molecular target: T2, E17K 33-mer epitope (PH Domain fragment of Akt1) (Homo sapiens, UniProt P31749, E17K/H13K); experiment: Fluorescence polarization binding to E17K mutant epitope; settings: yleaf peptide 4, fluorescence polarization in solution, triplicate
T2 construct: made in house; host or cells: chemical synthesis (Fmoc SPPS)
T2 sequence (P31749 1-33 H13K/E17K limits assumed): T1 sequence (P31749 1-33 H13K/E17K limits assumed)
Experimental: FIG. 2: Anchor ligand structure and characterization. (FIG. 2A) The peptide anchor ligand, yleaf (SEQ ID NO: 43), which was discovered using the epitope-targeting technique. The different sets of R groups indicate the modifications that were made to perform the various experiments described. (FIG. 2B) Point ELISA for specificity obtained by immobilizing biotinylated yleaf (SEQ ID NO: 43) anchor ligand 2 onto a Neutravidin plate, then incubating with a 6 His-tagged epitope (“6 His” disclosed as SEQ ID NO: 4) 3. […] (FIG. 2C) Binding curves of yleaf (SEQ ID NO: 43) anchor ligand 4 to the full-length WT or E17K mutant Akt1 proteins obtained in solution by fluorescence polarization. A saturation point for the WT ligand was not reached due to the prohibitively high protein concentration required. (FIG. 2D) Full binding curves of yleaf (SEQ ID NO: 43) anchor ligand 4 to the WT or E17K mutant epitopes. […] All assays were performed in triplicate and averaged. Error bars indicate standard deviation.
The selectivity of the yleaf (SEQ ID NO: 43) peptide for the E17K 33-mer epitope was also tested in an ELISA assay format. For these assays, the WT or E17K 33-mer peptide fragments were captured using the PEG-biotin-modified yleaf (SEQ ID NO: 43) ligand immobilized on a neutravidin-coated plate.

## CC(C)C[C@@H](NC(=O)[C@H](N)Cc1ccc(O)cc1)C(=O)N[C@H](CCC(=O)O)C(=O)N[C@H](C)C(=O)N[C@H](Cc1ccccc1)C(N)=O [yleaf] (H-[dY][dL][dE][dA][dF]-NH2; N-terminus assumed)
[1]
  amount of E17K 33-mer fragment pulled down (HPLC peak): preferential; also recorded: pulls down the most of the E17K 33mer fragment
[2]
  Kd: 328 ± 96 nM
